Where two headings read alike, the source gives them in different places.

Data set [1] concerns GABA transport in rat cerebrocortical NPMV (GAT-2/3). As to the kind of experiment: [3H]GABA uptake in rat cerebrocortical native plasma membrane vesicles (NPMV) in the presence of 100 µM NNC-711. It is filed as biochemical. Particulars: for effect on GABA transport in rat cortical NPMV: 10 min preincubation, 100 µM NNC-711 (Figure 1B); for modulation of the effect of Glu on GABA transport / cytosolic GABA level in rat cortical NPMV: 100 µM NNC-711 present. As for the experimental part: Cerebral cortices of 4–6 weeks old male Wistar rats (Toxicoop, Hungary) and frozen human brain tissue samples (Hungarian Brain Tissue Bank, Budapest) were used to prepare NPMV fractions, that contain numerous membrane vesicles of different sizes and shapes, a few intact synaptosomes and free mitochondria. […] Afterward, preincubated solution was incubated with [^3H]GABA (10 nM, Amersham) and GABA (90 nM, Sigma) for 1 min. In case of [^3H]β-alanine uptake, incubation solution contained 100 nM [^3H]β-alanine (Amersham) and 900 nM β-alanine (Sigma). After the incubation, samples were immediately filtered through glass fiber filters and washed twice with ice-cold HEPES buffer. The [^3H]GABA level inside the plasma membrane vesicles was determined by liquid scintillation method. Although this method is generally used to measure GABA uptake, we applied it to follow GABA release due to the simplicity and reliability of the assay. We also determined GABA release by preloading [^3H]GABA into NPMV vesicles and measuring the [^3H]GABA level in the intracellular and extracellular milieu. […] Non-specific uptake was determined in the presence of 1 mM guvacine. The radioactivity of samples was counted in HiSafe 3 (Perkin Elmer) scintillation mixture.

The test system of the next data set is GAT-1. The arrangement: method as in Borden,L.A. (1996) Neurochem Int. 4: 335–356. Particulars: ref Borden,L.A. (1996) Neurochem Int. 4: 335–356; cited from earlier work.
The test system of a further data set is BGT. The arrangement: method as in Borden,L.A. (1996) Neurochem Int. 4: 335–356. Particulars: ref Borden,L.A. (1996) Neurochem Int. 4: 335–356; cited from earlier work.
The next data set has as its system GAT-2. The arrangement: method as in Borden,L.A. (1996) Neurochem Int. 4: 335–356. Particulars: ref Borden,L.A. (1996) Neurochem Int. 4: 335–356; cited from earlier work.
The test system of a further data set is GAT-3. Further details: method as in Borden,L.A. (1996) Neurochem Int. 4: 335–356. Particulars: ref Borden,L.A. (1996) Neurochem Int. 4: 335–356; cited from earlier work.
Data set [2] concerns acute rat hippocampal slices. As to the kind of experiment: [3H]GABA efflux from acute rat hippocampal slices (microvolume superfusion). The format is cell-based. The conditions noted are these: for effect on Glu-induced GABA release in hippocampal slices: DL-AP5 50 µM, CNQX 10 µM, (S)-MCPG 500 µM applied as Glu receptor antagonists. As for the experimental part:
Radiolabeling of 400 µm thick acute slices was conducted in 200 µl of ACSF in a glass tube. […] To preferentially label the cytosolic over the vesicular pools, incubation of slices at 30°C lasted for 10 min [54]. Slices were washed with fresh ACSF containing GABA-T inhibitors, thereafter placed in a custom-built closed micro-volume (50 µl) chamber secured in a water bath thermostated at 30°C [55]. […] The superfusate was collected in 0.5 ml fractions. After washing for 10 min, 10 fractions were collected to define the basal release of radioactivity (‘pre-stimulus’). At this point, the hippocampal slice was exposed to 100 µM Glu for a period of 10 min (‘drug application’), followed by further 10 min of washing with ACSF (‘washout’). Radioactivity of each 0.5 ml fraction counted in 3 ml HiSafe 3 scintillation mixture was expressed as the percentage of the actual radioactivity content of the slice (fractional release). Fractional release data from individual slices were normalized to a first order exponential curve (obtained by fitting the pre-stimulus and the last 3 washout values). Normalized percent efflux data from fractions of ‘pre-stimulus’ (1–10 min) versus ‘drug application’ (11–20 min) periods were averaged and compared by statistical analysis.

The test system of a further data set is rat hippocampus. As to the kind of experiment: In vivo microdialysis and HPLC amino acid detection in the hippocampus. As for the experimental part:
Male Wistar rats (300–400 g) were anaesthetized with halothane (1% in air) and microdialysis probes were implanted into the ventral hippocampus (A: −5.0, L: 5.0, V: −8.0) as described previously. To minimize tissue damage, the final position of the probes was reached slowly, in not less than 20 min. Perfusion of artificial cerebrospinal fluid, containing 144 mM NaCl, 3 mM KCl, 1 mM MgCl2, 2 mM CaCl2 (pH 7.4), was performed at a rate of 1 µl/min. The dialysate samples during 20 min were stored at −20°C. To establish the background amino acid concentration, each experiment started with the collection of three control samples with <10% variation. NNC-711 was applied bilaterally for 60 min followed by the simultaneous application of t-PDC and NNC-711 for 60 min. Concentration of amino acids was measured by pre-column derivatization of primary amino acids with orthophthalaldehyde (OPA, Sigma). Derivatization was performed at pH 10.4 in the presence of mercaptoethanol. OPA-derivatized amino acids were detected with fluorescence detector excitation wavelength 340 nm and emission wavelength 440 nm. Because of the instability of OPA derivatives, the HPLC technique was automated on an HP 1100 series system. Amino acids were separated on HP Hypersyl ODS reversed-phase columns (200×2.1 mm) filled with 5 µm C-18 spherical packing material. Eluent A was 0.1 M phosphate buffer containing 0.5% (vol/vol) tetrahydrofuran (Merck), pH 5.6, while eluent B contained 70% acetonitrile (Merck) in eluent A, pH 5.6. The gradient profile was: 12% B at 0 min, 23% B at 9 min, 36% B at 18 min, 100% B at 20 min, 100% B at 25 min and 12% B at 30 min. The column equilibration time was 8 min. External standards of 10 µM amino acids were injected after every 20 samples. Chromatograms were evaluated with HP Chem-Station software. Concentration of GABA measured in dialysate samples collected during drug applications were related to averaged GABA concentration of control samples collected for an hour prior to drug application and were given as percent changes.

The next data set deals with hippocampus. The conditions noted are these: cited from earlier work.
For data set [3], the system named is acute rat hippocampal slices. The experiment in a line: [3H]GABA efflux from acute rat hippocampal slices (microvolume superfusion). The conditions noted are these: for alteration of [GABA]o during blockade of GAT-2/3: no exogenous Glu, n = 5. It is filed as cell-based.
[4] abbreviates: GABA transport in the presence of 100 µM NNC-711, present study, read-out: IC50 Rat cerebrocortical NPMV.
Setting [5] is: rat cortical NPMV, in the presence of NNC-711, read-out: IC50, effect on GABA transport.
Where [6] appears, read: 100 µM SNAP-5114, nominally Mg2+-free ACSF.

`NCCS(=O)O` [Hypotaurine]: the IC50 in data set [1] (setting [4]) is 20 ± 0.4 µM; with GAT-1, 1010 µM; with BGT it was 536 µM; in the data set on GAT-2 it was 52 µM; with GAT-3 it was 73 µM.
On to `N[C@@H](CS(=O)(=O)O)C(=O)O` [cysteic acid], for which, in data set [1], the “effect on GABA transport in rat cortical NPMV” value (“effect on GABA transport” below) is given as “able to affect GABA transport”.
Take `CC(C)C[C@@H](N)C(=O)O` [D-Leu]: in data set [1] (setting [5]), the IC50 was greater than 1000 µM.
With `C[N+](C)(C)CC(=O)O` [Betaine], the IC50 in data set [1] (setting [4]) was greater than 1000 µM; in the data set on GAT-1 it was greater than 1000 µM; in the data set with BGT, 173 µM; in the data set on GAT-2 it was greater than 1000 µM; in the data set with GAT-3 it was greater than 1000 µM.
Take `C[C@@](N)(C(=O)O)c1ccc(C(=O)O)cc1` [(S)-MCPG, (S)-α-methyl-4-carboxyphenylglycine]: the “effect on Glu-induced GABA release in hippocampal slices” value (“effect on Glu-induced GABA release” below) in data set [2] is recorded as “partially inhibited”.
For the molecule `N[C@@H](CO)C(=O)O` [L-Ser], the half-maximal inhibitory concentration (IC50) in data set [1] (setting [5]) was greater than 1000 µM.
Take `NCCS(=O)(=O)O` [Taurine]: the IC50 in [1] (setting [4]) was 400 ± 7 µM; in the data set on GAT-1, greater than 1000 µM; in the data set with BGT, greater than 1000 µM; in the data set on GAT-2 it was 1270 µM; with GAT-3 it was 2860 µM.
`NC(CCCP(=O)(O)O)C(=O)O` (racemic) [DL-AP5, DL-2-amino-5-phosphonopentanoic acid]: in data set [2], the “effect on Glu-induced GABA release” value is on record as “partially inhibited”.
As for `C[N+]1(C)CCc2cc3c(cc2[C@H]1[C@@H]1OC(=O)c2c1ccc1c2OCO1)OCO3.[I-]` [(1S,9R)-bicuculline methiodide], the “modulation of the effect of Glu on GABA transport / cytosolic GABA level in rat cortical NPMV” value in data set [1] is “did not modulate the effect of Glu on the cytosolic GABA level”.
For the molecule penicillin, the IC50 in data set [1] (setting [5]) was greater than 1000 µM.
For `O=C(O)CCC(=O)O` [succinate], the half-maximal inhibitory concentration (IC50) in data set [1] (read-out: IC50, effect on GABA transport) is greater than 1000 µM.
`N[C@H](CO)C(=O)O` [D-Ser]: in data set [1] (setting [5]), the IC50 was greater than 1000 µM.
With `N[C@@H](CC(=O)O)C(=O)O` [L-Asp], the “effect on GABA transport” value in data set [1] was “able to affect GABA transport”.
On to `O=C(O)C1=CCCN(CCON=C(c2ccccc2)c2ccccc2)C1` [NNC-711, 1,2,5,6-tetrahydro-1-[2-[[(diphenylmethylene)amino]oxy]ethyl]-3-pyridinecarboxylic acid], for which, in data set [1] (100 µM NNC-711, NPMV fractions, n = 51), the “reduction of the [3H]GABA uptake” value is 86±3%. In the data set on rat hippocampus (control for non-specific release, n = 10), the “[Arginine]o in the rat hippocampus in vivo” value is given as 100±25 % of control. Further, the “[GABA]o in the rat hippocampus in vivo” value in the data set with rat hippocampus (microdialysis application, t-PDC applied together with NNC-711, n = 10) is reported as 160±18 % of control.
As for `O=C(O)C1CCCN(CCC=C(c2ccccc2)c2ccccc2)C1` (centres unmarked) [SKF89976A], the IC50 in [1] (setting [4]) is 372 ± 9 µM; with GAT-1, 0.64 µM; in the data set on BGT, 7210 µM; in the data set with GAT-2 it was 550 µM; in the data set with GAT-3 it was 4390 µM.
With `NCCC(=O)O` [β-alanine], the IC50 was 26 ± 4 µM in [1] (setting [4]); 2920 µM in the data set on GAT-1; 1100 µM in the data set with BGT; 66 µM in the data set with GAT-2; 110 µM in the data set with GAT-3.
As to `N[C@H](CC(=O)O)C(=O)O` [D-Asp], the “effect on GABA transport” value in data set [1] is reported as “able to affect GABA transport”.
On to `CC(C)C[C@H](N)C(=O)O` [L-Leu], for which the IC50 in data set [1] (setting [5]) was greater than 1000 µM.
As to `N[C@H](C(=O)O)[C@H](OCc1ccccc1)C(=O)O` (racemic) [TBOA, DL-threo-β-benzyloxyaspartic acid], the “modulation of the effect of Glu on GABA transport / cytosolic GABA level in rat cortical NPMV” value in data set [1] was “further reduced”. Further, the “elevation of [GABA]o ([3H]GABA efflux)” value in [2] (Glu-induced release in the presence of 100 µM TBOA, n = 4) is 123±10 % of pre-stimulus control; in data set [2] (Glu-induced release in the presence of 1000 µM TBOA, n = 4) it was 109±1 % of pre-stimulus control. The “neuronal damage after in vivo administration in the hippocampus” value in the data set on hippocampus was “induce neuronal damage in the CA1 and the dentate gyrus”.
As to `NCCc1ccc(O)c(O)c1` [dopamine], in [1] (setting [5]), the IC50 was greater than 1000 µM.
Take “6-cyano-7-nitroquinoxaline-2,3-dione [CNQX]”: the “effect on Glu-induced GABA release” value in data set [2] is recorded as “partially inhibited”.
Consider `O=C(O)C1CCCNC1` (centres unmarked) [Nipecotic acid], for which the IC50 in [1] (setting [4]) stood at 28 ± 0.5 µM.
For the molecule `[Cd+2]` [Cd^2+], the “elevation of [GABA]o ([3H]GABA efflux)” value in data set [2] (Glu-induced release in the presence of 50 µM Cd2+ salt in the superfusion, n = 3) was 143±10 % of pre-stimulus control.
As for `CC(C)[C@H]1CN[C@H](C(=O)O)[C@H]1CC(=O)O` [DHK, dihydrokainic acid], in data set [1], the “modulation of the effect of Glu on GABA transport / cytosolic GABA level in rat cortical NPMV” value is recorded as “significantly reduced”.
In the case of `NCCc1c[nH]c2ccc(O)cc12` [serotonin], the IC50 in data set [1] (setting [5]) was greater than 1000 µM.
For the molecule `COc1ccc(C(OCCN2CCC[C@H](C(=O)O)C2)(c2ccc(OC)cc2)c2ccc(OC)cc2)cc1` [SNAP-5114, 1-[2-[tris(4-methoxyphenyl)methoxy]ethyl]-(S)-3-piperidinecarboxylic acid], the “elevation of [GABA]o ([3H]GABA efflux)” value in data set [2] (Glu-induced release in the presence of SNAP-5114, n = 4) is 109±4 % of pre-stimulus control. In data set [3] (setting [6]), the “reduction of [3H]GABA release compared to the pre-application period” value is given as 10% and the “alteration of [GABA]o during blockade of GAT-2/3” value is given as 90±4 % of pre-application control. For the same molecule, the “alteration of [GABA]o during blockade of GAT-2/3” value in data set [3] (100 µM SNAP-5114, normal ACSF) was 100±6 % of pre-application control.
As to `NC[C@H](CC(=O)O)c1ccc(Cl)cc1` [(R)-baclofen], the “modulation of the effect of Glu on GABA transport / cytosolic GABA level in rat cortical NPMV” value in [1] was “did not modulate the effect of Glu on the cytosolic GABA level”.
As for `N[C@H](CCC(=O)O)C(=O)O` [D-Glu], the “effect on GABA transport” value in data set [1] is reported as “able to affect GABA transport”.

A word on the IC50: it is the concentration needed to halve the response being measured.

(Values after paper PMC2744931, “Glutamate Uptake Triggers Transporter-Mediated GABA Release from Astrocytes” (PLoS ONE, 2009).)
